Measured values: US4111955A, “N-Trihalomethanesulfenyl carbamoyloximino di-sulfur heterocyclic compounds” (priority 1976, dated 1978)
Converted amounts (≈) assume the structure as drawn.

Columns and labels:
[1] = test system: southern armyworm (Prodenia eridania, (Cram.)); experiment: Southern Armyworm Leaf Spray Test; type: in vivo; design: key to pesticidal activity rating, Armyworm: A: excellent control; B: partial control; C: no control
Description: Larvae of the southern armyworm (Prodenia eridania, (Cram.)), reared on Tendergreen bean plants at a temperature of 80°±5° F. and a relative humidity of 50±5 percent, constituted the test insects.
The test compounds were formulated by diluting the stock suspension with water to give a suspension containing 500 parts of test compound per million parts of final formulation. Potted Tendergreen bean plants of standard height and age were placed on a revolving turntable and sprayed with 100-110 milliliters of test compound formulation by use of a DeVilbiss spray gun set at 10 psig air pressure. This application, which lasted 25 seconds, was sufficient to wet plants to run-off. As a control, 100-110 milliliters of a water-acetone-emulsifier solution containing no test compound were also sprayed on infested plants. When dry, the paired leaves were separated and each one was placed in a 9 centimeter Petri dish lined with moistened filter paper. Five randomly selected larvae were introduced into each dish and the dishes were closed. The closed dishes were labeled and held at 80°-85° F. for 3 days. Although the larvae could easily consume the whole leaf within 24 hours, no more food was added. Larvae which were unable to move the length of the body, even upon stimulation by prodding, were considered dead. Percent mortality was recorded for various concentration levels.
(§1) In these tests the pesticidal activity of the compounds against aphid, mite, Southern Armyworm, Bean Beetle and House fly was rated as follows:
(§2) The LD50 values shown in the above Table II were determined by testing the compositions over an appropriate concentration range obtained by serial dilution of the stock suspension with water. The percent kill was plotted on log-probit graph paper versus parts per million concentration, and the LD50 read from an eye-fitted line drawn through the resultant points.

[2] = test system: mites; experiment: Systemic miticidal activity (soil drench of infested bean plants); type: in vivo, Tetranychus urticae Koch; settings: Table II
Description: (§3) Adults and nymphal stages of the two-spotted mite (Tetranychus urticae Koch), reared on Tendergreen bean plants at 80±5 percent relative humidity, were the test organisms. Infested leaves from a stock culture were placed on the primary leaves of two bean plants 6 to 8 inches in height, growing in a 21/2 inch clay pot. 150-200 Mites, a sufficient number for testing, transferred from the excised leaves to the fresh plants in a period of 24 hours. Following the 24 hour transfer period, the excised leaves were removed from the infested plants. The test compounds were formulated by diluting the stock suspension with water to give a suspension containing 500 parts of test compound per million parts of final formulation. The potted plants (one pot per compound) were placed on a revolving turntable and sprayed with 100-110 milliliters of test compound formulation by use of a DeVilbiss spray gun set at 40 psig. air pressure. This application, which lasted 25 seconds, was sufficient to wet the plants to run-off. As a control, 100-110 milliliters of a water solution containing acetone and emulsifier in the same concentrations as the test compound formulation, but containing no test compound, were also sprayed on infested plants. The sprayed plants were held at 80±5 percent relative humidity for 6 days, after which a mortality count of motile forms was made. Microscopic examination for motile forms was made on the leaves of the test plants. Any individual which was capable of locomotion upon prodding was considered living.
as §2
Systemic treatments were made by drenching 20 milliliters of the test compound formulation into the soil around the roots of bean plants growing in 21/2 inch clay pots. […]

[3] = test system: house flies (Musca domestica, L.); experiment: Fly Bait Test; type: in vivo; design: key to pesticidal activity rating, Housefly: A: excellent control; B: partial control; C: no control
Description: Four to 6 day old adult house flies (Musca domestica, L.), reared according to the specifications of the Chemical Specialities Manufacturing Association (Blue Book, McNair-Dorland Co., N.Y. 1954; pages 243-244, 261) under controlled conditions of 80°±5° F. and 50±5 percent relative humidity, were the test insects. The flies were immobilized by anesthetizing with carbon dioxide and twenty five immobilized individuals, males and females, were transferred to a cage consisting of a standard food strainer about 5 inches in diameter which was inverted over a wrapping-paper-covered surface. The test compounds were formulated by diluting the stock suspension with a 10 percent (by weight) sugar solution to give a suspension containing 500 parts of test compound per million parts of final formulation, by weight. Ten milliliters of the test formulation were added to a souffle cup containing a 1-inch square of an absorbent cotton pad. This bait cup was introduced and centered on the blotting paper under the food strainer prior to admitting the anesthetized flies. The caged flies were allowed to feed on the bait for 24 hours, at a temperature of 80°±5° F. and the relative humidity of 50±5 percent.
as §1, §2

[4] = test system: aphid, mite, Southern Armyworm, Bean Beetle and House fly; experiment: Overall pesticidal activity / insect toxicity compared with methylcarbamoyl derivatives; type: in vivo; settings: all cases except the bean-beetle; Table II
Excerpt: as §1
In the above Table, A indicates excellent control, B indicates partial control and C indicates no control. For comparison purposes, there is provided immediately below the data presented for the trihalomethanesulfenyl derivative the activity measurements achieved from the corresponding methyl-carbamoyl derivative adjacent to the chemical designation --NHCH3.
as §2

[5] = test system: bean aphid (Aphis fabae Scop.); experiment: Bean Aphid Foliage Spray Test; type: in vivo; design: key to pesticidal activity rating, Aphid: A: excellent control; B: partial control; C: no control
Description: Adults and nymphal stages of the bean aphid (Aphis fabae Scop.) reared on potted dwarf nasturtium plants at 65°-70° F. and 50-70 percent relative humidity, constituted the test insects. For testing purposes, the number of aphids per pot was standardized to 100-150 by trimming plants containing excess aphids.
The test compounds were formulated by diluting the stock suspension with water to give a suspension containing 500 parts of test compound per million parts of final formulation.
The potted plants (one pot per compound tested) infested with 100-150 aphids, were placed on a revolving turntable and sprayed with 100-110 milliliters of test compound formulation by use of a DeVilbiss spray gun set at 40 psig. air pressure. This application, which lasted 25 seconds, was sufficient to wet the plants to run-off. As a control, 100-110 milliliters of a water-acetone-emulsifier solution containing no test compound were also sprayed on infested plants. After spraying, the pots were placed on their sides on a sheet of white standard mimeograph paper which had been previously ruled to facilitate counting. Temperature and humidity in the test room during the 24 hour holding period were 65°-70° F. and 50-70 percent, respectively. Aphids which fell onto the paper and were unable to remain standing after being uprighted were considered dead. Aphids remaining on the plants were observed closely for movement and those which were unable to move the length of the body upon stimulation by prodding were considered dead. Percent mortality was recorded for various concentration levels.
as §1, §2

[6] = test system: two-spotted mite (Tetranychus urticae Koch); experiment: Mite Foliage Spray Test; type: in vivo; design: key to pesticidal activity rating, Mite: A: excellent control; B: partial control; C: no control
Description: as §3, §1, §2

CN(SC(Cl)(Cl)Cl)C(=O)ON=C1CSCCS1 [2-[(N-METHYL-N-TRICHLOROMETHANESULFENYL)-CARBAMOYLOXIMINO]-1,4-DITHIANE]
pesticidal activity rating, Armyworm ([1]; 500 parts per million, 3 days): A | LC50 ([1]; Spodoptera eridania, 72 h, Table II, read-out: Insect Toxicity, LD50, Armyworm): 52 µg/mL (≈ 146 µM) | systemic activity relative to the methylcarbamoyl composition [2]: higher degree of systemic activity | LC50 ([2]; Tetranychus urticae, systemic, soil drench, value in parentheses, read-out: Insect Toxicity, LD50, Mite, systemic activity): 3 µg/mL (≈ 8.43 µM) | pesticidal activity rating, Housefly ([3]; 500 parts per million, 24 hours): A | LC50 ([3]; Musca domestica, 24 h, Table II, read-out: Insect Toxicity, LD50, House fly): 2 µg/mL (≈ 5.62 µM) | insect toxicity relative to the methylcarbamoyl composition [4]: essentially equivalent | pesticidal activity rating, Aphid ([5]; 500 parts per million, 24 hour): A | LC50 ([5]; Aphis fabae, foliar, 24 h, Table II, read-out: Insect Toxicity, LD50, Aphid): 13 µg/mL (≈ 36.5 µM) | pesticidal activity rating, Mite ([6]; 500 parts per million, 6 days): A | LC50 ([6]; Tetranychus urticae, foliar, Table II, read-out: Insect Toxicity, LD50, Mite): 7 µg/mL (≈ 19.7 µM)
